Patent US8067461B2, “3-acyl coumarins, thiochromones and quinolones and therapeutic uses thereof” (Temple University-Of The Commonwealth System of Higher …, priority 2005, dated 2011)
Read-outs that look alike come from different tables or passages of the source.

Legend:
[1] = target: CDK4/CyclinD1 (Homo sapiens, UniProt P11802); assay: In vitro kinase assay CDK4/CyclinD1, 32P incorporation into GST-Rb
[2] = target: T1, CDK1/CyclinB (Homo sapiens, UniProt P06493); assay: In vitro kinase assay CDK1/CyclinB, 32P incorporation into Histone H1; assay type: biochemical; conditions: recombinant human enzyme complex, average of two independent experiments in triplicate
T1 construct: purchased Upstate USA, Charlottesville, Va

[3] = test system: DU145 Cells; assay: Cytotoxicity on DU145 tumor cells, viable cells by Trypan blue exclusion; assay type: cell-based, human; conditions: DU145 prostate cell line, 96 h continuous treatment, five concentrations (1-100 μM range)
Method: The effect of compounds according to Formula I on the growth of human tumor cells in culture was evaluated using the androgen receptor negative prostate cell line DU145. All cell cultures were maintained at 37° C. in a humidified atmosphere of 5% CO2.
Cells were treated with compounds according to Formula I at five different concentrations (1-100 μM range) for each compound. The dose response of each cell line was established by determining the number of viable cells after 96 h of continuous treatment against each of the different test concentrations of each compound. The determination of viable cells was done by the by the Trypan blue exclusion method. An IC50 (μM) for each compound was determined.

[4] = target: T2, CDK9/CyclinT1 (Homo sapiens, UniProt P50750); assay: In vitro kinase assay CDK9/CyclinT1, 32P incorporation into RNA Polymerase II carboxy terminal domain; assay type: biochemical; conditions: recombinant human enzyme complex, average of two independent experiments in triplicate
T2 construct: purchased Upstate USA, Charlottesville, Va

[5] = target: T3, CDK2/CylinE (Homo sapiens, UniProt P24941); assay: In vitro kinase assay CDK2/CylinE, 32P incorporation into Histone H1; assay type: biochemical; conditions: recombinant human enzyme complex, average of two independent experiments in triplicate
T3 construct: purchased Upstate USA, Charlottesville, Va

T1 sequence (P06493 whole entry): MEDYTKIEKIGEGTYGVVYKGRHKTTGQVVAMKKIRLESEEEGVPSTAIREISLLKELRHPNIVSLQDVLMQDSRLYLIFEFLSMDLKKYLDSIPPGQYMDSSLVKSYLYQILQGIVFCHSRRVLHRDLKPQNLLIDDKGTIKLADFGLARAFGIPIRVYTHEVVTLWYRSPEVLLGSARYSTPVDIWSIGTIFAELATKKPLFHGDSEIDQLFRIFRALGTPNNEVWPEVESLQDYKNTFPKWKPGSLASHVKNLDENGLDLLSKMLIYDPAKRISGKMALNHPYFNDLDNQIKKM
T1 sequence (P14635 whole entry partner): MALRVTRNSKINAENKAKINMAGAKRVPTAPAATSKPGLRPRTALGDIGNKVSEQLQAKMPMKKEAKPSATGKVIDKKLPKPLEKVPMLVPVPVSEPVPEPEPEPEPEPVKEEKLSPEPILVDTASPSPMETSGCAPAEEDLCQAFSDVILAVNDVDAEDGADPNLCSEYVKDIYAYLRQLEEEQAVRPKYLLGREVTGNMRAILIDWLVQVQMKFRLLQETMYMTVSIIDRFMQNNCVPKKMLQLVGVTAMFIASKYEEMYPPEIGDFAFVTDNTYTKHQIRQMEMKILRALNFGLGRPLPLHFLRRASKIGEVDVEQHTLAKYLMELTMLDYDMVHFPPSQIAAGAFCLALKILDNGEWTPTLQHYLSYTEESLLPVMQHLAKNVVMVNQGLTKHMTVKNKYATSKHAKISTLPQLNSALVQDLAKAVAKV
T2 sequence (P50750 whole entry, the tested form may be a part): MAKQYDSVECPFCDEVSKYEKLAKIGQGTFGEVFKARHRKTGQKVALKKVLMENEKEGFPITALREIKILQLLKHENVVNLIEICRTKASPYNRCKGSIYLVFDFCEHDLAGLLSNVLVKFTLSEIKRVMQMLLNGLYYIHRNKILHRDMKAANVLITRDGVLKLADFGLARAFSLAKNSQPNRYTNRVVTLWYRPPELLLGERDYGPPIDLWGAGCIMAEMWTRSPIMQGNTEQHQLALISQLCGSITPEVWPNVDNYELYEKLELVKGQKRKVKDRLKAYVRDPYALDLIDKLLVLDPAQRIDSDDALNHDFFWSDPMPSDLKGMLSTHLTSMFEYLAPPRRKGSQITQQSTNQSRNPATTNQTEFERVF
T2 sequence (O60563 whole entry partner, the tested form may be a part): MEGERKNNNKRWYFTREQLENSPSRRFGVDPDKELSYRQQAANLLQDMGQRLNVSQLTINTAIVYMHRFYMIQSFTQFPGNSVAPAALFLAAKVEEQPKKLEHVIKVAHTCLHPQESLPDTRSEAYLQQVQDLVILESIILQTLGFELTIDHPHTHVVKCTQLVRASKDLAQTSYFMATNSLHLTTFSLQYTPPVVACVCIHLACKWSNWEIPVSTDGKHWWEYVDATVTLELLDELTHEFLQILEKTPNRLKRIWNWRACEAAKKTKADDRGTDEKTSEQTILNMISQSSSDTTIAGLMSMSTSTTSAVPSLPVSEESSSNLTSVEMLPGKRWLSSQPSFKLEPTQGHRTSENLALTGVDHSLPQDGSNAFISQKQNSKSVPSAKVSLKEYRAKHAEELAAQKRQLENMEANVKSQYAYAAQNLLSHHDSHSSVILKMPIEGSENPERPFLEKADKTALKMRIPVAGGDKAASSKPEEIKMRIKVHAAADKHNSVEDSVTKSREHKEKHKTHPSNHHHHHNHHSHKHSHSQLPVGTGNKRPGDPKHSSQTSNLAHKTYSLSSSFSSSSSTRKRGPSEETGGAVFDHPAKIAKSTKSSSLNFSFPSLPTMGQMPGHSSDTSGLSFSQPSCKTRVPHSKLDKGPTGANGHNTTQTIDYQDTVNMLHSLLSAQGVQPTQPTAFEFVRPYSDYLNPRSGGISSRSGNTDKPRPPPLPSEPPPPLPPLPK
Sequence of CDK4/CyclinD1 (P11802 whole entry): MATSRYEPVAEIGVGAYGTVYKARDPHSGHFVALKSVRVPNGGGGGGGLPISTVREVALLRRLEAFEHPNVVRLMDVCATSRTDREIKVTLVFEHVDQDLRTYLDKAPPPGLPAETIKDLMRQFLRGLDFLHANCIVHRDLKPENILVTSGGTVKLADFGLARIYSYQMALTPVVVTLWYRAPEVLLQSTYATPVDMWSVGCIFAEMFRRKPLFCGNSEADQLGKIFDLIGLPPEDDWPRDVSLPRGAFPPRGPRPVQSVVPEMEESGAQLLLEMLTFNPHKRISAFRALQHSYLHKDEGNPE
Sequence of CDK4/CyclinD1 (P24385 whole entry partner): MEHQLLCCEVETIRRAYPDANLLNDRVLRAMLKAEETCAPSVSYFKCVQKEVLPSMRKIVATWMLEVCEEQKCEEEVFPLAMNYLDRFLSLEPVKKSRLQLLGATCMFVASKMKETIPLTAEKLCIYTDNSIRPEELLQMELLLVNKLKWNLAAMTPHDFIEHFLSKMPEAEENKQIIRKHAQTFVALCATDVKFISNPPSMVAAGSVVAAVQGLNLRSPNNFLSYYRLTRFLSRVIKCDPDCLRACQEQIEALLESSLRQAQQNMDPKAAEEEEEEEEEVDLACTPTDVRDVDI

Compound	IC50 [1]	IC50 [2]	IC50 [4]	IC50 [5]	IC50 ([3]; Homo sapiens, DU-145)	IC50 ([1]; read-out: CDK4 IC50, recombinant human enzyme complex, average of two independent experiments in triplicate)	IC50 [3]
O=C(c1cc2cc(Br)ccc2oc1=O)c1cc2cc(Br)ccc2oc1=O [Example 1, 6-bromo-3-[(6-bromo-2-oxo-chromen-3-yl)carbonyl]chromen-2-one]	> 10 µM	> 10 µM			> 100 µM		
O=C(c1cc2ccccc2oc1=O)c1cc2ccccc2oc1=O [Example 5]	> 10 µM	> 10 µM			> 100 µM		
O=C(c1cc2cc(Cl)ccc2oc1=O)c1cc2cc(Cl)ccc2oc1=O [Example 6, 6-chloro-3-[(6-chloro-2-oxochromen-3-yl)carbonyl]chromen-2-one]	> 10 µM	1 to 10 µM			> 100 µM		
O=C(c1cc2cc(F)ccc2oc1=O)c1cc2cc(F)ccc2oc1=O [Example 7, 6-fluoro-3-[(6-fluoro-2-oxochromen-3-yl)carbonyl]chromen-2-one]	> 10 µM	> 10 µM			> 100 µM		
O=C(c1cc2cc(I)ccc2oc1=O)c1cc2cc(I)ccc2oc1=O [Example 8, 6-iodo-3-[(6-iodo-2-oxochromen-3-yl)carbonyl]chromen-2-one]	> 10 µM	> 10 µM			> 100 µM		
O=C(c1cc2ccc(O)cc2oc1=O)c1cc2ccc(O)cc2oc1=O [Example 11, 7-hydroxy-3-[(7-hydroxy-2-oxo-chromen-3-yl)carbonyl]chromen-2-one]	> 10 µM	> 10 µM			> 100 µM		
O=C(c1cc2cccc(O)c2oc1=O)c1cc2cccc(O)c2oc1=O [Example 17, 8-hydroxy-3-[(8-hydroxy-2-oxochromen-3-yl)carbonyl]chromen-2-one]	> 10 µM	> 10 µM			25 to 50 µM		
O=C(c1cc2cc(O)ccc2oc1=O)c1cc2cc(O)ccc2oc1=O [Example 18, 6-hydroxy-3-[(6-hydroxy-2-oxochromen-3-yl)carbonyl]chromen-2-one]	> 10 µM	> 10 µM			> 100 µM		
O=C(c1cc2cc3ccccc3cc2oc1=O)c1cc2cc3ccccc3cc2oc1=O [Example 20, [(2-oxobenzo[g]chromen-3-yl)-carbonyl]benzo[g]chromen-2-one]		> 10 µM				> 10 µM	25 to 50 µM
Cc1ccc2oc(=O)c(C(=O)c3cc4cc(C)ccc4oc3=O)cc2c1 [Example 22, 6-methyl-3-[(6-methyl-2-oxochromen-3-yl)carbonyl]chromen-2-one]	> 10 µM	1 to 10 µM					
O=C(c1cc2cc(OC(F)(F)F)ccc2oc1=O)c1cc2cc(OC(F)(F)F)ccc2oc1=O [Example 23, 6-trifluoromethoxy-3-[(6-tri-fluoromethoxy-2-oxochromen-3-yl)-carbonyl]chromen-2-one]	> 10 µM	> 10 µM					
O=C(c1cc2cccc(F)c2oc1=O)c1cc2cccc(F)c2oc1=O [Example 26, 8-fluoro-3-[(8-fluoro-2-oxochromen-3-yl)carbonyl]chromen-2-one]	> 10 µM	> 10 µM					

Now from value to molecule, other results behind:

IC50 [1]	IC50 [2]	IC50 [4]	IC50 [5]	Compound	IC50 ([3]; Homo sapiens, DU-145)	IC50 ([1]; read-out: CDK4 IC50, recombinant human enzyme complex, average of two independent experiments in triplicate)	IC50 [3]
> 10 µM	> 10 µM			COc1ccc2cc(C(=O)c3cc4ccc(OC)cc4oc3=O)c(=O)oc2c1 [Example 2, 7-methoxy-3-[(7-methoxy-2-oxochromen-3-yl)carbonyl]chromen-2-one]	> 100 µM		
> 10 µM	> 10 µM			COc1cc(OC)c2cc(C(=O)c3cc4c(OC)cc(OC)cc4oc3=O)c(=O)oc2c1 [Example 3, 5,7-dimethoxy-3-[(5,7-dimethoxy-2-oxochromen-3-yl)carbonyl]chromen-2-one]	> 100 µM		
> 10 µM	> 10 µM			CCOc1cccc2cc(C(=O)c3cc4cccc(OCC)c4oc3=O)c(=O)oc12 [Example 4, 8-ethoxy-3-[(8-ethoxy-2-oxochromen-3-yl)carbonyl]chromen-2-one]	> 100 µM		
> 10 µM	> 10 µM	0.5 µM	1.54 µM	O=C(c1cc2cc([N+](=O)[O-])ccc2oc1=O)c1cc2cc([N+](=O)[O-])ccc2oc1=O [Example 9, 6-nitro-3-[(6-nitro-2-oxochromen-3-yl)carbonyl]chromen-2-one]	1 to 10 µM		
> 10 µM	> 10 µM	0.5 µM	0.549 µM	COc1cc([N+](=O)[O-])cc2cc(C(=O)c3cc4cc([N+](=O)[O-])cc(OC)c4oc3=O)c(=O)oc12 [Example 10, 8-methoxy-3-[(8-methoxy-6-nitro-2-oxo-chromen-3-yl)carbonyl]-6-nitro-chromen-2-one]	10 to 25 µM		
2.5 to 5 µM	> 10 µM			O=C(c1cc2cc(Cl)cc(Cl)c2oc1=O)c1cc2cc(Cl)cc(Cl)c2oc1=O [Example 12, 6,8-dichloro-3-[(6,8-dichloro-2-oxochromen-3-yl)carbonyl]chromen-2-one]	10 to 25 µM		
2.5 to 5 µM		0.5 µM	10 µM	O=C(c1cc2cc(Br)cc(Br)c2oc1=O)c1cc2cc(Br)cc(Br)c2oc1=O [Example 13, 6,8-dibromo-3-[(6,8-dibromo-2-oxochromen-3-yl)carbonyl]chromen-2-one]	10 to 25 µM		
> 10 µM	> 10 µM			O=C(c1cc2cc(F)cc(F)c2oc1=O)c1cc2cc(F)cc(F)c2oc1=O [Example 14, 6,8-difluoro-3-[(6,8-difluoro-2-oxochromen-3-yl)carbonyl]chromen-2-one]	10 to 25 µM		
> 10 µM	> 10 µM			COc1ccc(Br)c2cc(C(=O)c3cc4c(Br)ccc(OC)c4oc3=O)c(=O)oc12 [Example 15, 5-bromo-8-methoxy-3-[(5-bromo-8-methoxy-2-oxochromen-3-yl)-carbonyl]chromen-2-one]	25 to 50 µM		
> 10 µM	> 10 µM			COc1cc(Br)cc2cc(C(=O)c3cc4cc(Br)cc(OC)c4oc3=O)c(=O)oc12 [Example 16, 6-bromo-8-methoxy-3-[(6-bromo-8-methoxy-2-oxochromen-3-yl)-carbonyl]chromen-2-one]	50 to 100 µM		
> 10 µM	1 to 10 µM	0.5 µM	0.089 µM	O=C(c1cc2cc(Cl)cc(Br)c2oc1=O)c1cc2cc(Cl)cc(Br)c2oc1=O [Example 19, 6-chloro-8-bromo-3-[(6-chloro-8-bromo-2-oxochromen-3-yl)carbonyl]-chromen-2-one]	1 to 10 µM		
> 10 µM	> 10 µM	0.5 µM	10 µM	COc1cccc2oc(=O)c(C(=O)c3cc4c(OC)cccc4oc3=O)cc12 [Example 21, 5-methoxy-3-[(5-methoxy-2-oxochromen-3-yl)carbonyl]chromen-2-one]	50 to 100 µM		
> 10 µM	> 10 µM			O=C(c1cc2cccc([N+](=O)[O-])c2oc1=O)c1cc2cccc([N+](=O)[O-])c2oc1=O [Example 24, 8-nitro-3-[(8-nitro-2-oxo-chromen-3-yl)carbonyl]chromen-2-one]			
> 10 µM				O=C(c1cc2cc([N+](=O)[O-])cc(Br)c2oc1=O)c1cc2cc([N+](=O)[O-])cc(Br)c2oc1=O [Example 27, 6-nitro-8-bromo-3-[(6-nitro-8-bromo-2-oxocbromen-3-yl)carbonyl]-chromen-2-one]			
0.04 µM				O=C(c1cc2cc(I)cc(I)c2oc1=O)c1cc2cc(I)cc(I)c2oc1=O [Example 29, 6,8-diiodo-3-[(6,8-diiodo-2-oxochromen-3-yl)carbonyl]chromen-2-one]	10 to 20 µM		
